Experimental data published in article PMC5762309 (Oncotarget, 2017).
Values joined by “and” are separate entries in the source; they are usually repeats but may differ in a detail not shown here. Equal entries are not always repeated. Where two headings read alike, the source gives them in different places.

Tests used:
BaF3-tel-KIT-A829P = experiment: Anti-proliferation assay, transformed BaF3 cells; assay type: cell-based; conditions: Mus musculus, 72 hours, CellTiter-Glo
From the text: (§1) Retroviral constructs for BaF3-KIT mutants were made based on the pMSCVpuro (Clontech) backbone. For TEL-KIT vector, the first 1 kb of human TEL gene with an artificial myristoylation sequence ([…]) was cloned into the pMSCVpuro retroviral vector, followed by a 3xFLAG tag sequence. Then, the kinase domain coding sequence of KIT was inserted in-frame between TEL and 3xFLAG sequences. For full-length expression vectors, the coding sequences of KIT variants were directly cloned in pMSCVpuro vector with a 3xFLAG tag at the C-terminal end. All mutagenesis was performed using the QuikChange Site-Directed Mutagenesis Kit (Stratagene) following the manufacturer’s instructions. Retrovirus was packaged in HEK293T cells by transfecting KIT-containing MSCV vectors together with two helper plasmids. Virus supernatants were harvested 48 h after transfection and filtered before infection. Then BaF3 cells were infected with harvested virus supernatants using spinoculation protocol, and stable cell lines were obtained by puromycin selection for 48 h. The IL-3 concentrations in the culture medium were gradually withdrawn until cells were able to grow in the absence of IL-3.
(§2) Cells were grown in 96-well culture plates (2500/well). The compounds of various concentrations were added into the plates. Cell proliferation was determined after treatment with compounds for 72 hours. Cell viability was measured using the CellTiter–Glo assay (Promega, USA), according to the manufacturer’s instructions, and luminescence was measured in a multi-label reader (Envision, PerkinElmer, USA). Data were normalized to control groups (DMSO) and represented by the mean of three independent measurements with standard error <20%. GI50 values were calculated using Prism 5.0 (GraphPad Software, San Diego, CA).

BaF3-tel-KIT-D816V = experiment: Anti-proliferation assay, transformed BaF3 cells; assay type: cell-based; conditions: Mus musculus, 72 hours, CellTiter-Glo
From the text: as §1, §2

BaF3-tel-KIT-L576P = experiment: Anti-proliferation assay, transformed BaF3 cells; assay type: cell-based; conditions: Mus musculus, 72 hours, CellTiter-Glo
From the text: as §1, §2

BaF3-tel-KIT-N822K = experiment: Anti-proliferation assay, transformed BaF3 cells; assay type: cell-based; conditions: Mus musculus, 72 hours, CellTiter-Glo
From the text: as §1, §2

BaF3-tel-KIT-T670I-V559D = experiment: Anti-proliferation assay, transformed BaF3 cells; assay type: cell-based; conditions: Mus musculus, 72 hours, CellTiter-Glo
From the text: as §1, §2

BaF3-tel-KIT-T670I = experiment: Anti-proliferation assay, transformed BaF3 cells; assay type: cell-based; conditions: Mus musculus, 72 hours, CellTiter-Glo
From the text: as §1, §2

BaF3-tel-KIT-V559D-V654A = experiment: Anti-proliferation assay, transformed BaF3 cells; assay type: cell-based; conditions: Mus musculus, 72 hours, CellTiter-Glo
From the text: as §1, §2

BaF3-tel-KIT-V654A = experiment: Anti-proliferation assay, transformed BaF3 cells; assay type: cell-based; conditions: Mus musculus, 72 hours, CellTiter-Glo
From the text: as §1, §2

BaF3-tel-KIT = experiment: Anti-proliferation assay, transformed BaF3 cells; assay type: cell-based; conditions: Mus musculus, 72 hours, CellTiter-Glo
From the text: as §1, §2

[1] = test system: CSF1R transformed BaF3 cells; experiment: Anti-proliferation assay, transformed BaF3 cells; assay type: cell-based; conditions: Mus musculus
Experimental: Then we used the DiscoverX’s KINOMEScan platform to further examine CHMFL-KIT-031’s kinome-wide selectivity profile. […] Besides the strong binding to V559D, it also bound strongly to KIT wt, L576P and A829P.
as §2

ARK5 = biological target: T1, ARK5 (Homo sapiens, UniProt O60285); experiment: KINOMEScan; assay type: binding; parameters: dose or concentration left out as unconfirmed
T1 construct: purchased DiscoverX KINOMEscan

BTK = biological target: T2, BTK (Homo sapiens, UniProt Q06187); experiment: KINOMEScan; assay type: binding; parameters: dose or concentration left out as unconfirmed
T2 construct: purchased DiscoverX KINOMEscan

CAMK1B = biological target: T3, CAMK1B (Homo sapiens, UniProt Q6P2M8); experiment: KINOMEScan; assay type: binding; parameters: dose or concentration left out as unconfirmed
T3 construct: purchased DiscoverX KINOMEscan
T3 sequence (Q6P2M8 whole entry): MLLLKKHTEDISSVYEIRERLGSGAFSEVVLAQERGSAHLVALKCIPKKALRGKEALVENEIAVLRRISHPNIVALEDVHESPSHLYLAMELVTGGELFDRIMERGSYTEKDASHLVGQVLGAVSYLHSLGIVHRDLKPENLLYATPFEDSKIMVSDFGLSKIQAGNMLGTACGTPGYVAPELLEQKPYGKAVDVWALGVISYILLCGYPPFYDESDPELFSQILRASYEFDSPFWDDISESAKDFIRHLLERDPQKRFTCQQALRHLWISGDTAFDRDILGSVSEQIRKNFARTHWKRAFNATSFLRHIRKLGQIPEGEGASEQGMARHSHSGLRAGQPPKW

DLK = biological target: T4, DLK (Homo sapiens, UniProt Q12852); experiment: KINOMEScan; assay type: binding; parameters: dose or concentration left out as unconfirmed
T4 construct: purchased DiscoverX KINOMEscan
T4 sequence (Q12852 whole entry): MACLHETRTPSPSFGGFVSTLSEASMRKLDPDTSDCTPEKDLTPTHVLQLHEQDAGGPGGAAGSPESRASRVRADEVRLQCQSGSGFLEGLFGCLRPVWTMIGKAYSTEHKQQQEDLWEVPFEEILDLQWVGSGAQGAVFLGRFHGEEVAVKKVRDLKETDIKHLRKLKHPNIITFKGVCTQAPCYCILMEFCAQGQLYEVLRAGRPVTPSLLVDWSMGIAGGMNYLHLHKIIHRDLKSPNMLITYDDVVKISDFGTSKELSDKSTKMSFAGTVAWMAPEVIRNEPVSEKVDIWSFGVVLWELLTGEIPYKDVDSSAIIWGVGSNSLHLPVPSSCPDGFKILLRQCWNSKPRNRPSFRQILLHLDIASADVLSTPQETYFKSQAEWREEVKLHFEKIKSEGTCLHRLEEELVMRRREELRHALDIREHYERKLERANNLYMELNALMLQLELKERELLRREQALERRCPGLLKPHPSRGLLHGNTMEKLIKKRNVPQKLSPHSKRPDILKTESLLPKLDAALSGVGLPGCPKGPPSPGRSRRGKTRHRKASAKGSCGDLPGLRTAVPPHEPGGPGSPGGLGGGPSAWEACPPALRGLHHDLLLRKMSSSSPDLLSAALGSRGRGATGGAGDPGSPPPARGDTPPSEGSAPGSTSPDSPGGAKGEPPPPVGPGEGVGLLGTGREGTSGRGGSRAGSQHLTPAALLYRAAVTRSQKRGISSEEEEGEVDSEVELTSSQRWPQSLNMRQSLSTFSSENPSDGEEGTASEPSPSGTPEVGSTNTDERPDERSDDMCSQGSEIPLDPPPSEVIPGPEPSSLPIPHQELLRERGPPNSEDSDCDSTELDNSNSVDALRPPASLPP

EGFR(L747-T751del,Sins) = experiment: KINOMEScan; assay type: binding; parameters: dose or concentration left out as unconfirmed
EGFR(L858R,T790M) = biological target: T5, EGFR(L858R,T790M) (Homo sapiens, UniProt P00533, L858R/T790M); experiment: KINOMEScan; assay type: binding
T5 construct: purchased DiscoverX KINOMEscan
T5 sequence (P00533 25-1210 T790M/L858R): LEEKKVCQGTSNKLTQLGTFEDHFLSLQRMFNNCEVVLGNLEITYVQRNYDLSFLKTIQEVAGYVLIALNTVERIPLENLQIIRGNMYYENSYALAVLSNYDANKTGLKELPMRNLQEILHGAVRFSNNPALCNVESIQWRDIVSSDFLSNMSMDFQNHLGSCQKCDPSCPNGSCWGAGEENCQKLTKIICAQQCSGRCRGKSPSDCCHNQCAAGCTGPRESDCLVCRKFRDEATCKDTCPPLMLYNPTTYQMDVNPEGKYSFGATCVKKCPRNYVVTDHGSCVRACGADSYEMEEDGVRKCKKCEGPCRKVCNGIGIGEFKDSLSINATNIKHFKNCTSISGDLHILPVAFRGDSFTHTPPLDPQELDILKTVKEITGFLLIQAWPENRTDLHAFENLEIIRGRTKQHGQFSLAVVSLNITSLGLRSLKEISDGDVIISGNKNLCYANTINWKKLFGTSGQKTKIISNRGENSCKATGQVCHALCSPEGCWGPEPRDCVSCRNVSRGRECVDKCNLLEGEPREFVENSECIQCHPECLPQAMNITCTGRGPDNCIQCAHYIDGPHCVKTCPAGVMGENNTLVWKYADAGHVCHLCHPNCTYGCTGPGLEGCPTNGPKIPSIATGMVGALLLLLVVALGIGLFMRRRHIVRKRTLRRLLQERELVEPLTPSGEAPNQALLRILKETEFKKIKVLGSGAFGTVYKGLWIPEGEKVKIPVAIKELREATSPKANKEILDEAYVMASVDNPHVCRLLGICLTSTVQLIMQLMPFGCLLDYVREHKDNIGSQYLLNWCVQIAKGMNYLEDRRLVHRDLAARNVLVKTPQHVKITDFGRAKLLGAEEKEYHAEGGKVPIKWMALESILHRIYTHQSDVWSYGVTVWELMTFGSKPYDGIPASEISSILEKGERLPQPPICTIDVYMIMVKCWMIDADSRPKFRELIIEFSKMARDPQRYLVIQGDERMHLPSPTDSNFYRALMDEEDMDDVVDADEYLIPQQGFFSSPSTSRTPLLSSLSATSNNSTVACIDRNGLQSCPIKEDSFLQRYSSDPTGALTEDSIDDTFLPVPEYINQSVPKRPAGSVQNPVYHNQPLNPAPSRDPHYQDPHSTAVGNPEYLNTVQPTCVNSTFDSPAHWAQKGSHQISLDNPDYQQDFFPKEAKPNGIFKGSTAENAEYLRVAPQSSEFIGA

[2] = biological target: T6, JAK1(JH1domain-catalytic) (Homo sapiens, UniProt P23458); experiment: KINOMEScan; assay type: binding; parameters: dose or concentration left out as unconfirmed
T6 construct: JAK1(JH1domain-catalytic); purchased DiscoverX KINOMEscan
T6 sequence (P23458 875-1154 limits assumed): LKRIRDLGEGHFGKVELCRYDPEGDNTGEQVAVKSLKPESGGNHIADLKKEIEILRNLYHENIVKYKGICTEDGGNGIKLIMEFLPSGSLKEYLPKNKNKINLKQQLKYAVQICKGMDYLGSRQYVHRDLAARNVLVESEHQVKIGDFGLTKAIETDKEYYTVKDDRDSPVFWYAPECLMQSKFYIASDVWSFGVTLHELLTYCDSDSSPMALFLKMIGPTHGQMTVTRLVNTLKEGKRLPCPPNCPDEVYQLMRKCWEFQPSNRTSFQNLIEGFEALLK

[3] = biological target: T7, JAK1(JH2domain-pseudokinase) (Homo sapiens, UniProt P23458); experiment: KINOMEScan; assay type: binding; parameters: dose or concentration left out as unconfirmed
T7 construct: JAK1(JH2domain-pseudokinase); purchased DiscoverX KINOMEscan
T7 sequence (P23458 583-855 limits assumed): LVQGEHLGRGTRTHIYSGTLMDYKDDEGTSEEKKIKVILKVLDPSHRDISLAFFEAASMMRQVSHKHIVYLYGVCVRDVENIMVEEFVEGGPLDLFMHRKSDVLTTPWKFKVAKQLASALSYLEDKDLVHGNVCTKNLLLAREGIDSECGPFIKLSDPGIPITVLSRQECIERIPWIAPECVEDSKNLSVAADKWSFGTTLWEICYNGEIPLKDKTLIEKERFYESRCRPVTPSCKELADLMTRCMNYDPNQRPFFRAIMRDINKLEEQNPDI

JNK1 = biological target: T8, JNK1 (Homo sapiens, UniProt P45983); experiment: KINOMEScan; assay type: binding; parameters: dose or concentration left out as unconfirmed
T8 construct: purchased DiscoverX KINOMEscan
T8 sequence (P45983 whole entry): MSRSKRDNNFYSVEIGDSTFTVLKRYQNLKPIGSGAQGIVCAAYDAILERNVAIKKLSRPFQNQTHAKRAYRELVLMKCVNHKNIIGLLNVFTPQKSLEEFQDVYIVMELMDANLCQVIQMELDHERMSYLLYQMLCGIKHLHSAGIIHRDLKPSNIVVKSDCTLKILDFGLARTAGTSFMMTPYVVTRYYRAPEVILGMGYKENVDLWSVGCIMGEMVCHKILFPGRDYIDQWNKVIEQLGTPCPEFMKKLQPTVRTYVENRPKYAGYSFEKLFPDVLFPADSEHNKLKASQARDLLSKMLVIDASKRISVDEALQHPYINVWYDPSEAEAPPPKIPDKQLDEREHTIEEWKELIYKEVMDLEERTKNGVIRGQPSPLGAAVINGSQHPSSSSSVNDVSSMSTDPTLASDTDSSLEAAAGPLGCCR

KIT N822K = KIT N822K (Homo sapiens, UniProt P10721, N822K); experiment: KIT auto-phosphorylation in transformed BaF3 cells
Sequence of KIT N822K (P10721 26-976 N822K): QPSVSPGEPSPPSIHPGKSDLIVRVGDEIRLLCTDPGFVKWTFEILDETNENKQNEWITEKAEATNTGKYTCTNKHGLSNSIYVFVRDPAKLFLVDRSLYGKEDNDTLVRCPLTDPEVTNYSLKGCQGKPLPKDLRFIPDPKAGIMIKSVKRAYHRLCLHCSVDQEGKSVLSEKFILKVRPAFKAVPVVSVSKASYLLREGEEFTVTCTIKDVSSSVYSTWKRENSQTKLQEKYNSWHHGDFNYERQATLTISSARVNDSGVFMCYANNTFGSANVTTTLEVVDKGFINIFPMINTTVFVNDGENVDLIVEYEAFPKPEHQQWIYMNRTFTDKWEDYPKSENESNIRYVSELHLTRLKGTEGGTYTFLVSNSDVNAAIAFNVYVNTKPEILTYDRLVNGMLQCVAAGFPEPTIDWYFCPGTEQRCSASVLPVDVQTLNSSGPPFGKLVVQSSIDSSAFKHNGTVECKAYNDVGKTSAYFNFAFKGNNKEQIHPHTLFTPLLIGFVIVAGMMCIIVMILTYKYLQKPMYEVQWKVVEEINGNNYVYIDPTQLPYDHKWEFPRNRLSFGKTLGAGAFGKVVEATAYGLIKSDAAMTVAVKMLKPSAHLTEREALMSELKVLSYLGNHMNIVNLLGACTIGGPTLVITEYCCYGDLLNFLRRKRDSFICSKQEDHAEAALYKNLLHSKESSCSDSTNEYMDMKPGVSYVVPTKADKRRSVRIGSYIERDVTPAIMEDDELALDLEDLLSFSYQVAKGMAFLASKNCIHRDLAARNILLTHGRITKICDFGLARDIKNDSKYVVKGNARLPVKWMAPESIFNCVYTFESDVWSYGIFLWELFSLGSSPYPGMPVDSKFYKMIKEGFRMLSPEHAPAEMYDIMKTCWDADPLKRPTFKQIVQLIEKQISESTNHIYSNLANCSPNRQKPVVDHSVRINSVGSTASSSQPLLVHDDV

KIT wt = KIT wt (Homo sapiens, UniProt P10721); experiment: KIT auto-phosphorylation in parental Colo320DM cells; assay type: cell-based; parameters: Colo320DM cells which express wt KIT kinase; endogenous in cells; host or cells: Colo320DM, SCF-stimulated
Sequence of KIT wt (P10721 26-976): as the sequence (P10721 26-976 N822K) above, with K797N counted along it
From the text: In order to better define CHMFL-KIT-031’s inhibitory effect against KIT V559D mutant, we then tested it with purified KIT wt/V559D kinase protein by ADP-Glo assay (Figure 2A). […] We also transformed and overexpressed KIT V559D transiently into Colo320DM cells which express wt KIT kinase and tested CHMFL-KIT-031’s inhibitory effects for the auto-phosphorylation of KIT Y703, 719 and Y823 sites.

KIT V559D = KIT V559D (Homo sapiens, UniProt P10721, V559D); experiment: ADP-Glo biochemical assay; parameters: Kit V559D encoding residues 545-976 with His tag; His tag; made in house; host or cells: SF9 insect cells (baculovirus)
Sequence of KIT V559D (P10721 545-976 V559D): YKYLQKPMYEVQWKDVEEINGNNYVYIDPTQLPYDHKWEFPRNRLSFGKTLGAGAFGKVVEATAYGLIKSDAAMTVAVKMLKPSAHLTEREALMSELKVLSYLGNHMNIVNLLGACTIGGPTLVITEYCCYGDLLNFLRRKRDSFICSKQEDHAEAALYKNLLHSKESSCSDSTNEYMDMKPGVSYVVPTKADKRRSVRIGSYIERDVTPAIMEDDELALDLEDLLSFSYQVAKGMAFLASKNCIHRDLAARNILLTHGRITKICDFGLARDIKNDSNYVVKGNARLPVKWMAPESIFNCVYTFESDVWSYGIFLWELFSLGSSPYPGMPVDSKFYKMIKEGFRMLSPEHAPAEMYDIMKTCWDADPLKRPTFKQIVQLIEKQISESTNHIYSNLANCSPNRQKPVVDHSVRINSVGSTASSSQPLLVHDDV

COc1cc(C(=O)NCC(=O)Nc2ccc3c(/C=C/c4ccccn4)n[nH]c3c2)cc(OC)c1OC [CHMFL-KIT-031]
GI50 (BaF3-tel-KIT-A829P): 1800 nM | GI50 (BaF3-tel-KIT-D816V): > 10000 nM | GI50 (BaF3-tel-KIT-L576P): 2200 nM | GI50 (BaF3-tel-KIT-N822K): > 10000 nM | GI50 (BaF3-tel-KIT-T670I-V559D): > 10000 nM | GI50 (BaF3-tel-KIT-T670I): > 10000 nM | GI50 (BaF3-tel-KIT-V559D-V654A): 810 nM | GI50 (BaF3-tel-KIT-V654A): 400 nM | GI50 (BaF3-tel-KIT): > 10000 nM | GI50 [1]: 2400 nM | KINOMEScan profiling value (ARK5): 97 | KINOMEScan profiling value (BTK): 100 | KINOMEScan profiling value (CAMK1B): 83 | KINOMEScan profiling value (DLK): 97 | KINOMEScan profiling value (EGFR(L747-T751del,Sins)): 100 | KINOMEScan profiling value (EGFR(L858R,T790M)): 75 | KINOMEScan profiling value [2]: 87 | KINOMEScan profiling value [3]: 85 | KINOMEScan profiling value (JNK1): 94 | EC50 (KIT N822K): > 10000 nM | EC50 (KIT N822K; read-out: EC50 pY719 auto-phosphorylation, KIT N822K transformed BaF3 cells, 2h): > 10000 nM | EC50 (KIT N822K; read-out: EC50 pY823 auto-phosphorylation, KIT N822K transformed BaF3 cells, 2h): > 10000 nM | EC50 (KIT wt; COLO 320DM (KIT wt), SCF stimulation, read-out: EC50 P-CKIT Y719): 5620 nM | EC50 (KIT wt; COLO 320DM (KIT wt), SCF stimulation, read-out: EC50 P-CKIT Y823): 9700 nM | EC50 (KIT wt; in cell, KIT wt, read-out: EC50 pY703): 2000 nM | selectivity over KIT wt (IC50) (KIT V559D; ADP-Glo, KIT V559D vs KIT wt): about 6 fold | IC50 (KIT V559D; purified kinase protein, ADP-Glo, 100 μM ATP): 28.2 nM and 28 nM | selectivity over KIT wt (KIT V559D; summary statement): 10 fold
